Consider twelve compounds from the OPERA property sets (Mansouri et al. 2018).

One may read the logP as a log measure of how a compound divides between an organic and an aqueous phase. A low value points to a more hydrophilic compound. `CCOc1cncc(Cl)n1` registered a log partition coefficient (logP) of 2.22.
The same measure for `COC(=O)c1cncc(Cl)n1`: 0.47.
In the case of `Nc1cncc(Cl)n1` it was 0.95; in that of `Cc1cncc(Cl)n1`, 1.04; in that of `CCCOc1cncc(Cl)n1`, 2.71.
The same measure for `Fc1cncc(Cl)n1`: 1.16; for `CC(=O)Nc1cncc(Cl)n1`: 1.1; for `CN(C)c1cncc(Cl)n1`: 1.95.
The compound `N#Cc1cncc(Cl)n1` gave a logP of 0.79.
With `NC(=O)c1cncc(Cl)n1`, the logP was found to be 0.28.
The same measure for `COc1cncc(Cl)n1`: 1.65; for `Clc1cncc(Cl)n1`: 1.53.
